Test results reported in US20240115557A1, “INHIBITORS OF RNA-GUIDED NUCLEASES AND USES THEREOF” (The Brigham and Women's Hospital, Inc., priority 2022, published 2024).

Target: SpCas9 (Streptococcus pyogenes serotype M1, UniProt Q99ZW2)
Experiment: Strand displacement assay (SDA) / cumulative activity assay (CAA), SpCas9 primary screen
Format: biochemical
Conditions: Primary Screen (150 min); for Normalized Z score 1: replicate 1; for Normalized Z score 2: replicate 2
Protocol: Screening of inhibitors was via a high throughput pipeline, as depicted in FIG. 29. The first screening is via a strand displacement assay (SDA) for detecting nuclease activity (FIG. 27A, 28A). The Cpf1/Cas12 protein/DNA complex has a different structure from Cas9 and requires optimization of the potential fluorophore attachment sites (Yamano, T et al., Cell, 2016). (FIG. 28A). Next screened compounds are evaluated in an eGFP cell assay, and for eGFP dose. Those compounds are further narrowed via a HiBiT assay and finally evaluated in the surveyor assay. SAR evaluations are performed to arrive at lead compounds for further evaluations and variations. General methodology for the assays is as described in at [0253]-[0301] of U.S. Patent Application 62/831,143 filed Apr. 8, 2019, incorporated herein by reference.
The 3′ end of the displacing single-stranded DNA was labeled with a quencher. Following nuclease cleavage of the substrate, the 3′-labeled quenching DNA strand (present in excess) could outcompete the weakly held 3′ strand to anneal to the 5′ strand. The resulting FRET fluorescence quenching provides an optical readout for nuclease activity (FIG. 62A).
Typically, SpCas9: gRNA (1:1.2 ratio) RNP was pre-formed at 1 μM in Cas9 assay buffer (20 mM Tris-HCl, pH=7.5, 100 mM KCl, 5 mM MgCl2) for 5 min at 4° C. before diluting to 10 nM in Cas9 assay buffer (2× final concentration). 25 μL of the Cas9 2× stock was manually dispensed to a black 384-well plate (Corning 3575) using electronic pipette. […] Following this, pre-annealed Alexa-Fluor 647 labeled substrate and quencher were also diluted to 1 nM and 5 nM in Cas9 assay buffer, respectively (2× stock solution). Next, 25 μL of the substrate/quencher solution was added manually to each well of the Cas9-containing 384-well plates using an electronic pipette and was incubated at 37° C. for 2.5 h. Fluorescent signals were read with the microplate reader set to read Alexa-Fluor 647 fluorescence. Assay was performed similarly with SaCas9 and FnCas12a using the respective enzyme, gRNA, substrate, and quencher oligos. […]

Sequence of SpCas9 (Q99ZW2 whole entry): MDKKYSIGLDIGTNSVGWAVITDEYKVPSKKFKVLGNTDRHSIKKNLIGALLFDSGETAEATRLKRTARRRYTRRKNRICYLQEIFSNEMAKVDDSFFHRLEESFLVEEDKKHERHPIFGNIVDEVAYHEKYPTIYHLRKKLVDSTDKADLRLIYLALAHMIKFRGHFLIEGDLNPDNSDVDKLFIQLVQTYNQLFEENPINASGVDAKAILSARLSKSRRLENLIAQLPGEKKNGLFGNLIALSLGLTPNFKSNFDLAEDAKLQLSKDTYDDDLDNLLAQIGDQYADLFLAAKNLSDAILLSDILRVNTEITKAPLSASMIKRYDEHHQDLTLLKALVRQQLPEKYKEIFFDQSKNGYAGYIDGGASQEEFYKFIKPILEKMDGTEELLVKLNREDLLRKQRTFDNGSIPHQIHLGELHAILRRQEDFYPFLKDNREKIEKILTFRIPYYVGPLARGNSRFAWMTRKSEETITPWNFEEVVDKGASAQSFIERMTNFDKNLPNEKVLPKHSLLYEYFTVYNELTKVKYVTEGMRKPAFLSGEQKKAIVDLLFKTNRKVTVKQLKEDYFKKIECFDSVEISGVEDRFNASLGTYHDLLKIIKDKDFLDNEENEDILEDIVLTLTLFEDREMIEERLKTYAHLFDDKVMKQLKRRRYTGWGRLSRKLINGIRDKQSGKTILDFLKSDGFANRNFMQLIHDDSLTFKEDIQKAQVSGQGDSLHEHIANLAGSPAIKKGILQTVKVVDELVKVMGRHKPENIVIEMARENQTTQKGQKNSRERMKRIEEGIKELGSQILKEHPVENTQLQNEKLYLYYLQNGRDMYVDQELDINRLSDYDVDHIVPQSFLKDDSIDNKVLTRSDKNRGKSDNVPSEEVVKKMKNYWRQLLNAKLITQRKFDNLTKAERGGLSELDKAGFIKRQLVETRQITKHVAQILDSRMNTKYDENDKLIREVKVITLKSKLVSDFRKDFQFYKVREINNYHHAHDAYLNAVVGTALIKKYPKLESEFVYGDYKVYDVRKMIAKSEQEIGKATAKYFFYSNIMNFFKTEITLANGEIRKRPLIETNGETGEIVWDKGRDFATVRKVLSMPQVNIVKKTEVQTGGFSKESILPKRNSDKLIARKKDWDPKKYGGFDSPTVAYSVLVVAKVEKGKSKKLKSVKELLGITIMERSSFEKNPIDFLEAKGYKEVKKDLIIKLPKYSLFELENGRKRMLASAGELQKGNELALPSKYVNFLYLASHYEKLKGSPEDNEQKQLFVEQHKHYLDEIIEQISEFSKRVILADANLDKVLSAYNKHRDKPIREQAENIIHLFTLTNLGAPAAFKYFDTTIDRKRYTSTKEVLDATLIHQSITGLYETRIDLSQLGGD

Row | Compound | avg z score primary | Average Normalized Z score (average of replicates) | Normalized Z score 1 | Normalized Z score 2 | Average Normalized Z score
1 | O=C(CCC(=O)c1ccc(F)cc1)OC1CCOC1=O (stereo not drawn) [Compound T0512-8635] | 4.05 | 0.04 | 0.04 | 0.04 | 
2 | NC(=S)c1ccccn1 [Compound T5211106] | 3.58 | 0.04 | 0.04 | 0.04 | 
3 | CN1CCN(c2ccc(CNC(=O)Cn3ccc4c(SCc5ccccc5)nccc43)cc2)CC1 [Compound M056-0617] | 4.82 | 0.06 | 0.05 | 0.07 | 
4 | Cn1cccc1/C=C\C(=O)O [Compound T5365031] | 4.17 | 0.28 | 0.27 | 0.28 | 
5 | O=C(O)CSc1nnc(NC2CCCCC2)s1 [Compound T5211003] | 4.50 | 0.05 | 0.05 | 0.05 | 
6 | Cc1ccc(Cl)cc1NC(=O)C1=NCCN1 [Compound T0519-9012] | 5.06 | 0.10 | 0.08 | 0.12 | 
7 | O=C(N/N=C/c1ccc(O)c(O)c1O)c1cccc(S(=O)(=O)Nc2ccccc2Cl)c1 [Compound T0506-5702] | 4.48 | 0.07 | 0.07 | 0.07 | 
8 | COc1ccc(-n2c(N(C(C)=O)C(C)=O)c(C#N)c3nc4ccccc4nc32)cc1 [Compound T0503-6223] | 14.21 | 0.16 | 0.16 | 0.16 | 
9 | Cl.NC(CO)C(=O)NNCc1ccc(O)c(O)c1O (stereo not drawn) [Compound S2453] | 5.09 | 0.26 | 0.21 | 0.32 | 
10 | O=C([O-])C(O)Cc1ccc(O)c(O)c1.[Na+] (stereo not drawn) [Compound S2401] | 4.93 | 0.25 | 0.22 | 0.29 | 
11 | COc1ccc(C(=O)Oc2cc(-c3ccc(OC)c(OC)c3)cc(=O)c3c(C)oc(C)c23)cc1 [Compound D132-0053] | 3.32 |  | 0.21 | 0.19 | 0.20
12 | O=C(CSc1nnc2ccccn12)Nc1cc(C(=O)O)cc(C(=O)O)c1 [Compound T0513-0201] | 11.30 | 0.11 | 0.10 | 0.13 | 
13 | CCc1ccc(NC(=O)C(C#N)=Cc2cc(C#N)n(C)c2C)cc1 [Compound T5229649] | 4.90 | 0.07 | 0.06 | 0.08 | 
14 | Cc1sc2nc3n(c(=O)c2c1-c1ccccc1)CCC3 [Compound T0520-0462] | 4.18 | 0.04 | 0.04 | 0.05 | 
15 | O=C(Nc1nnc(C2CC2)s1)c1ccc2ncsc2c1 [Compound T0514-1693] | 5.62 | 0.07 | 0.07 | 0.07 | 
16 | CCCCC(=O)Nc1ccc(N2CCC(C(N)=O)(N3CCCCC3)CC2)c(C(=O)O)c1 [Compound G889-0171] | 3.38 |  | 0.07 | 0.07 | 0.07
17 | N=C1N=CC(=NNc2cc(C(=O)O)ccc2Cl)S1 [Compound T5253378] | 4.20 | 0.07 | 0.08 | 0.07 | 
18 | O=C1NC(=S)C(=C2CCCC2)S1 [Compound T5441809] | 22.96 | 0.26 | 0.27 | 0.24 | 
